Source: US20130184318A1, “[…] […]” (THE REGENTS OF THE UNIVERSITY OF CALIFORNIA, priority 2010, published 2013)

Key:
Type in all cases: cell-based, human
HTM cells [1] = experiment: AFM measurement of Young's modulus (compliance) of HTM cells before and after Lat-B exposure; conditions: for HTM Cell Modulus on Substrates, Glass: glass (GPa range), pre-dose 2.7 ± 0.7; for HTM Cell Modulus on Substrates, Homeomimetic: homeomimetic gel E = 4.0 ± 1.5 kPa, pre-dose 1.6 ± 0.2; for HTM Cell Modulus on Substrates, Pathomimetic: pathomimetic gel E = 92 ± 10 kPa, pre-dose 1.8 ± 0.5
Method: (§1) Primary HTM cells were obtained from corneal buttons from donors with no ocular diseases and that were not suitable for transplant. […] Cells were plated onto glass surfaces at 100,000 cells per surface. A similar number of cells were plated onto the biomimetic PA hydrogels. The cells were allowed to attach to the surfaces for 12 hours prior to the start of the experiment. Fluorescent images of the actin cytoskeleton were obtained from fixed cells stained with phalloidin-AlexaFluor 568 (Invitrogen, Carlsbad, Calif.). Fluorescent images of the cell membrane were obtained from live cells stained with wheat germ agglutinin-AlexaFluor 488 (Invitrogen).
The PA gels were then adhered to UV-cleaned, glass-bottom petri dishes (World Precision Instruments, Sarasota, Fla.), incubated in HTM medium for 12 hours, and then coated with a mixture of fibronectin and collagen (FNC coating mix, Athena Environmental Sciences, Baltimore, Md.) for 10 minutes prior to cell seeding. HTM cells were added to these dishes in media and were allowed to incubate overnight to ensure proper cell adhesion to the FNC-coated PA gels. Immediately prior to AFM measurements, the HTM media was rinsed away with PBS. This was done because fetal bovine serum is known to inactivate Lat-B (Spector, et al., (1989) Cell Motil Cytoskeleton 13:127-144).
The contact mechanics of the PA substrates and the HTM cells were studied with two MFP-3D atomic force microscopes (Asylum Research, Santa Barbara, Calif.) interfaced with either an Olympus (FluoView 1000 laser scanning confocal microscope, Olympus America, Center Valley, Pa.) or Zeiss (Axio Observer A1, Carl Zeiss, Thornwood, N.Y.) inverted microscope. No differences in contact mechanics of the samples were observed between the two instruments. The AFM probes in the substrate studies were silicon nitride cantilevers (PNP-TR-50, k=60 pN/nm, NanoAndMore, Lady's Island, S.C.) with a square pyramid tip incorporated at the free end. For each experiment, the actual spring constant of the cantilever was determined by monitoring the amplitude of the lever's thermal vibration at resonance and applying the equipartition theorem (Hutter, et al., (1993) Review of Scientific Instruments 64:3342-3342). Probe indentation measurements were obtained over the central region of the cell where the nucleus was present.
Compliance of the HTM cells and PA gels was quantified by fitting the force, generated by the indenting probe, vs. the depth of indentation with equation 1 (Hertz, H. (1882) J. Reine Angew. Mathematik 92:156-171; Love, A. E. H. (1939) Quarterly Journal of Mathematics 10:161-175; Harding, et al., (1945) Proceedings of the cambridge philosophical society 41:16-26).
Where α is the half-angle opening of the square pyramid tip (35°), ν is Poisson's ratio, E is Young's modulus and δ is the penetration depth. By using Eq. 1, we have assumed that the HTM cells and PA gels were perfectly elastic, isotropic, and infinitely thick and that the square pyramid indenter was a rigid cone. A Poisson ratio of 0.5 (incompressible) for both the cell and polyacrylamide gels was assigned, since both samples were well hydrated. This allows a solution for Young's modulus of the sample.
Application of Eq. 1 is not straightforward, as both the cells and gels were not perfectly elastic or isotropic, they were viscoelastic and anisotropic, and they were also not infinitely thick. However, in the limit of small indentations both the cells and gels were well described by Eq. 1. The method proposed by Mahaffey et al., (Phys Rev Lett (2000) 85:880-883) was applied to quantitatively define the indentation depth over which these viscoelastic materials behave as elastic bodies. This is accomplished by plotting experimental values of E vs. δ during tip indentation and noting the penetration depth over which E remains constant. […]

HTM cells [2] = experiment: Confocal/fluorescence imaging of HTM cell morphology on latrunculin exposure and recovery; conditions: for cell morphology: 0.2 μM latrunculin
Method: as §1
Latrunculin B influences cytoskeleton of cells by associating with actin. […] The micrographs were taken with a confocal AFM. The live HTM cells were labeled with fluorescent wheat germ agglutinin and the latrunculin was added. […] Measurements of compliance were taken prior to the introduction of drug, and at the 30 minute time point. The cells had moduli of 2.0 kPa prior to addition of latrunculin, and 0.07 kPa at 30 minutes. The concentration of drug used was not in the range of 1-100 μM used in other published studies. It should be noted, however, that the higher ranges (100 μM) were topically applied to primate eyes (20 μl) in one bolus while our studies had the drug present during the entire one hour time period. The effects of the latrunculin were profound.
The morphology of HTM cells adhered to glass and the glaucomatous (pathomimetic)polyacrylamide gel (PPA, 92.2±10.4 kPa) substrates were predominantly elongated with pronounced asymmetry. On the homeomimetic polyacrylamide gel (HPA, 4.0±1.5 kPa), the cells were predominantly adhered in a radially symmetric fashion and were considerably rounder in appearance (See, FIGS. 6 and 10). When exposed to Lat-B, HTM cells on glass and PPA substrates responded in a similar fashion to other cell types previously studied (Spector, et al., (1983) Science 219:493-495, Wakatsuki, et al., (2001) Journal of Cell Science 114:1025-1036, Coue, et al., (1987) Febs Letters 213:316-318; Cha, et al., (2004) J Cell Sci 117:3353-3365). Lat-B disrupted the dynamic process of actin filament maintenance and the actin polymerization process rapidly shifted towards net depolymerization. […] These strands resembled retraction fibers observed during mitosis (Sanger, et al., (1984) Cell Tissue Res 237:409-417). Similar cable-like filaments have also been reported by Evanko, et. al., (J Histochem Cytochem (2009) 57:1041-1060).

myocilin = experiment: Western blot of myocilin protein in HTM 631 cells; conditions: HTM 631 cells on 400 nm pitch surfaces with dexamethasone
Method: Protein concentration is assessed using the Bradford protein assay. Samples of 10 μg are electrophoresed on a 10% polyacrylamide gel and the protein transferred to nitrocellulose membranes as previously described^141. Antibodies for the proteins being detected are commercially available or publicly described. A chemiluminescent detection method is used with peroxidase linked antibodies to mouse, chick or rabbit in conjunction with the LumiGLO chemiluminesent kit. The banding pattern obtained on the x-ray film is quantified using ImageQuant software with the actin band serving as a normalized reference for protein loading. Imaging can also be done using a CCD camera without the use of x-ray film.

| SMILES | modulus of the cells (HTM cells [1]; 0.2 μM latrunculin, measured after 30 minutes, 2.0 kPa before addition) [kPa] | cell resistance to deformation compared to pre-exposure levels (HTM cells [1]; at 30 minutes of Lat-B exposure (0.2 μM)) | HTM Cell Modulus on Substrates, Glass (HTM cells [1]; 90 min recovery after 30 min 0.2 μM Lat-B and removal) [kPa] | HTM Cell Modulus on Substrates, Glass (HTM cells [1]; 90 min recovery after 30 min 0.2 μM Lat-B and removal, listed as Lat-B) [kPa] | HTM Cell Modulus on Substrates, Glass (HTM cells [1]; 270 min recovery after 30 min 0.2 μM Lat-B and removal) [kPa] | HTM Cell Modulus on Substrates, Glass (HTM cells [1]; 270 min recovery after 30 min 0.2 μM Lat-B and removal, listed as Lat-B) [kPa] | HTM Cell Modulus on Substrates, Homeomimetic (HTM cells [1]; 90 min recovery after Lat-B) [kPa] | HTM Cell Modulus on Substrates, Homeomimetic (HTM cells [1]; 270 min recovery after Lat-B) [kPa] | percentage difference in cell elastic modulus, PPA to HPA (HTM cells [1]; maximum, at 90 minutes of recovery from Lat-B) | HTM Cell Modulus on Substrates, Pathomimetic (HTM cells [1]; 90 min recovery after Lat-B) [kPa] | HTM Cell Modulus on Substrates, Pathomimetic (HTM cells [1]; 270 min recovery after Lat-B) [kPa] | cell morphology (HTM cells [2]; 30 minutes, listed as Latrunculin) | cell morphology (HTM cells [2]; 30 minutes, listed as latrunculin) | cell morphology (HTM cells [2]; one hour) | time to return to pre-exposure morphology after rinsing Lat-B (HTM cells [2]; glass and PPA substrates) | increase in myocilin protein expression (myocilin) [fold] |
| --- | --- | --- | --- | --- | --- | --- | --- | --- | --- | --- | --- | --- | --- | --- | --- | --- |
| C/C1=C/C(=O)O[C@@H]2C[C@@H](CC[C@H](C)/C=C\CC1)O[C@@](O)([C@@H]1CSC(=O)N1)C2 [Latrunculin B] | 0.07 | substantially decreased | 11.0 ± 2.3 | 11.0±2.3 | 2.3 ± 0.2 | 2.3±0.2 | 2.3 ± 0.2 | 1.7 ± 0.5 | approximately 54% | 4.0 ± 1.8 | 2.0 ± 0.4 | rounding of the cells | starting to round up | completely rounded | 60-90 minutes |  |
| C[C@@H]1C[C@H]2[C@@H]3CCC4=CC(=O)C=C[C@]4(C)[C@@]3(F)[C@@H](O)C[C@]2(C)[C@@]1(O)C(=O)CO [dexamethasone] |  |  |  |  |  |  |  |  |  |  |  |  |  |  |  | 19 |
